Results published in US9918656B2, “Implantable magnetic relaxation sensors and methods of measuring a sensor's cumulative exposure to a biomarker” (Massachusetts Institute of Technology, priority 2010, dated 2018).

Tested on: murine model
Assay: Doxorubicin cardiotoxicity: change in T2 of explanted myoglobin sensors
Conditions: myoglobin sensors left in vivo for 72 h after implantation; FIG. 17
From the text: FIG. 17 is a chart, illustrating data from experiments using sensors to detect the cardiotoxic effect of the drug Doxorubicin measured by change in T2 of […] sensors.
Derivatized particles were encapsulated within small diffusion devices. Polycarbonate diffusion membranes (SPI Supplies) were affixed by double-sided adhesive to one side of high-density polyethylene cylinders (thickness=1.6 mm, inner diameter=4.1 mm, outer diameter=7.9 mm). The opposing end was closed off by single-sided adhesive (3M) after the reservoir was filled with 25 μl particle solution. Devices (n=6 per animal) were implanted subcutaneously in the flank. The animals were euthanized and the devices explanted for single-sided relaxometry at specified time points. Devices were sealed with single-sided adhesive and replaced in the implant site for imaging.
The application of the sensors to discern drug cardiotoxicity was also studied. Doxorubicin is a potent anthracycline antibiotic that has found wide clinical use as a cancer chemotherapeutic. […] It was confirmed that serum myoglobin increases after doxorubicin administration in a murine model (as illustrated in FIG. 16), although at an order of magnitude lower concentration than after acute MI (10^2 ng/ml versus 10^3 ng/ml). Myoglobin sensors were thus left in vivo for 72 h after implantation (as opposed to 24 h for acute MI). […]

## COc1cccc2c1C(=O)c1c(O)c3c(c(O)c1C2=O)C[C@@](O)(C(=O)CO)C[C@@H]3O[C@H]1C[C@H](N)[C@H](O)[C@H](C)O1 [Doxorubicin]
  sensor T2, experimental versus control groups: clear distinction in sensor T2 between the experimental and control groups
